Test results taken from the supplement of paper PMC10011410.
± gives the standard deviation of the averaged measurements.

Tests used:
Conditions in all cases: 24 h
U-2 OS [1] = test: intracellular GSH:GSSG ratio (calculated); higher = more reduced glutathione pool
Method: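 Intracellular glutathione in U-2 OS cells after 24 h compound treatment at 5, 10 and 20 uM (some at 40 and 80 uM). Total glutathione and GSSG were measured with the GSH/GSSG-Glo kit, and the GSH:GSSG ratio was calculated. Mean of five technical replicate plates.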

U-2 OS [2] = test: cell viability (CellTiter-Glo) relative to DMSO (% of control); higher = more viable
Method: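 Cell viability of U-2 OS cells by CellTiter-Glo after 24 h compound treatment at 5, 10 and 20 uM (some at 40 and 80 uM), measured in parallel with the glutathione assay, as percent of DMSO control. Five technical replicate plates, averaged.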

U-2 OS [3] = test: total intracellular glutathione (GSH + GSSG) relative to DMSO (% of control); higher = more glutathione
Method: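 Total intracellular glutathione (GSH + GSSG) in U-2 OS cells by GSH/GSSG-Glo after 24 h compound treatment at 5, 10 and 20 uM (some at 40 and 80 uM), as percent of DMSO control. Five technical replicate plates, averaged.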

U-2 OS [4] = test: cell painting activity score (Mahalanobis distance from DMSO wells); higher = stronger morphological phenotype
Outline: (§1)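 In this cell painting assay, roughly 1,500 U-2 OS cells per well in 384-well plates were pin-tool treated at 37 °C for 24 h, typically at six 2-fold steps from 20 μM down to 625 nM. Cells were stained with MitoTracker, concanavalin A, phalloidin, wheat germ agglutinin, Hoechst and SYTO 14, imaged on an Opera Phenix, and analysed in CellProfiler with normalization to same-plate DMSO cells. Reported values are means of four replicate plates, with the activity score defined as the Mahalanobis distance from DMSO wells and cell count defined relative to DMSO wells.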

U-2 OS [5] = test: relative cell count vs DMSO (cell painting) (fraction of DMSO control); higher = more cells remaining (less cytotoxic)
Outline: as §1

Row | SMILES | intracellular GSH:GSSG ratio (U-2 OS [1]; 5 µM) | intracellular GSH:GSSG ratio (U-2 OS [1]; 10 µM) | intracellular GSH:GSSG ratio (U-2 OS [1]; 20 µM) | intracellular GSH:GSSG ratio (U-2 OS [1]; 40 µM) | intracellular GSH:GSSG ratio (U-2 OS [1]; 80 µM) | cell viability (U-2 OS [2]; 5 µM) | cell viability (U-2 OS [2]; 10 µM) | cell viability (U-2 OS [2]; 20 µM) | cell viability (U-2 OS [2]; 40 µM) | cell viability (U-2 OS [2]; 80 µM) | total intracellular glutathione (U-2 OS [3]; 5 µM) | total intracellular glutathione (U-2 OS [3]; 10 µM) | total intracellular glutathione (U-2 OS [3]; 20 µM) | total intracellular glutathione (U-2 OS [3]; 40 µM) | total intracellular glutathione (U-2 OS [3]; 80 µM) | cell painting activity score (U-2 OS [4]; 0.625 µM) | cell painting activity score (U-2 OS [4]; 1.25 µM) | cell painting activity score (U-2 OS [4]; 2.5 µM) | cell painting activity score (U-2 OS [4]; 5 µM) | cell painting activity score (U-2 OS [4]; 10 µM) | cell painting activity score (U-2 OS [4]; 20 µM) | relative cell count (U-2 OS [5]; 0.625 µM) | relative cell count (U-2 OS [5]; 1.25 µM) | relative cell count (U-2 OS [5]; 2.5 µM) | relative cell count (U-2 OS [5]; 5 µM) | relative cell count (U-2 OS [5]; 10 µM) | relative cell count (U-2 OS [5]; 20 µM) | cell painting activity score (U-2 OS [4]; 40 µM) | cell painting activity score (U-2 OS [4]; 80 µM) | relative cell count (U-2 OS [5]; 40 µM) | relative cell count (U-2 OS [5]; 80 µM)
1 | CC1=CC(=O)c2ccccc2C1=O | 17.1 | 2.21 | 1.63 | 0.957 | 2.69 | 40 ± 5.8 | 1.01 ± 0.2 | 1.22 ± 0.21 | 1.15 ± 0.15 | 0.692 ± 0.12 | 36.9 ± 4.5 | 4.53 ± 0.61 | 3.31 ± 0.24 | 2.94 ± 0.44 | 2.93 ± 0.45 | 4.82 | 3.53 | 4.48 | 6.92 | 10.5 | 17.1 | 0.971 | 0.921 | 0.979 | 0.89 | 0.643 | 0.277 | – | – | – | –
2 | CC1=NN(c2ccc(C(=O)O)cc2)C(=O)/C1=C\c1ccc(-c2cc(C)c(C)cc2[N+](=O)[O-])o1 | 27.1 | 21.9 | 23.1 | 20 | 18.3 | 91.3 ± 6.4 | 91.1 ± 2.4 | 96.4 ± 7.8 | 107 ± 8.1 | 90.6 ± 5.9 | 96 ± 2.5 | 105 ± 3.6 | 101 ± 4 | 102 ± 7.7 | 102 ± 5.6 | 5.05 | 4.06 | 4.65 | 6.01 | 14.4 | 15 | 0.893 | 0.944 | 0.894 | 0.904 | 0.854 | 0.787 | – | – | – | –
3 | COc1ccc(/C(Cl)=C(/C=O)c2ccc(OC)cc2)cc1 | 22.2 | 14.8 | 3.39 | 4.6 | 1.06 | 102 ± 5.1 | 87.1 ± 4.2 | 49.8 ± 6 | 44.2 ± 3.5 | 6.75 ± 0.88 | 115 ± 4.6 | 108 ± 6.8 | 51.8 ± 4.8 | 49.4 ± 2.6 | 8.12 ± 0.4 | 6.48 | 7.76 | 8.89 | 10.2 | 11.7 | 14.5 | 0.912 | 0.934 | 0.941 | 0.937 | 0.849 | 0.395 | 16.2 | 34 | 0.442 | 0.0713
